Where a SMILES comes first, the peptide text is derived from it. [ ]: non-standard residue; d: D form. The star is where a group is joined. FITC = O=C1OC2(c3ccc(O)cc3Oc3cc(O)ccc32)c2ccc(NC(=S)*)cc21; Dip = N[C@H](C(=O)O)C(c1ccccc1)c1ccccc1
Assays:
[1] = Balb/c mice, FITC fluorescence (485/535 nm) in blood samples
Method: At indicated time points, the mice were euthanized and the blood was taken from the heart. Sodium heparin was added to the blood samples at a concentration of 15 IU/ml. The fluorescence intensity of FITC‐LTX‐315 in the serum was measured using Tecan Infinite F200 Fluorescence Microplate Reader (Tecan, Seestrasse, Männedorf, Switzerland) at an excitation and emission wavelength of 485 and 535 nm, respectively.

[2] = due to high serum protein binding ability; cited from earlier work
From the text: Recently, several cationic antimicrobial peptides (CAPs), such as LTX‐315, have been extensively investigated as novel anticancer agents due to their ability to kill tumor cells and create a highly proinflammatory status of the TME, mainly via causing the destabilization of tumor cell plasma and mitochondrial membrane.[12] Subsequently, the CAPs trigger the immunogenic cell death (ICD) in tumor cells via Bax/Bak‐1 and caspase apoptotic pathways, which is along with the exposure or release of tumor antigens, danger‐associated molecular pattern (DAMP) molecules such as calreticulin, ATP and high ...

Compound | elimination after i.v. injection [1] | fate upon systemic administration [2]
NCCCC[C@H](NC(=O)[C@@H](NC(=O)[C@H](Cc1c[nH]c2ccccc12)NC(=O)[C@H](CCCCN)NC(=O)[C@H](CCCCN)NC(=O)[C@H](Cc1c[nH]c2ccccc12)NC(=O)[C@H](Cc1c[nH]c2ccccc12)NC(=O)[C@H](CCCCN)NC(=O)[C@H](CCCCN)NC(=S)Nc1ccc2c(c1)C(=O)OC21c2ccc(O)cc2Oc2cc(O)ccc21)C(c1ccccc1)c1ccccc1)C(N)=O [FITC-LTX] ({FITC}-KKWWKKW[Dip]K-NH2) | eliminated within few minutes | 
NCCCC[C@H](NC(=O)[C@@H](NC(=O)[C@H](Cc1c[nH]c2ccccc12)NC(=O)[C@H](CCCCN)NC(=O)[C@H](CCCCN)NC(=O)[C@H](Cc1c[nH]c2ccccc12)NC(=O)[C@H](Cc1c[nH]c2ccccc12)NC(=O)[C@H](CCCCN)NC(=O)[C@@H](N)CCCCN)C(c1ccccc1)c1ccccc1)C(N)=O [LTX-315] (H-KKWWKKW[Dip]K-NH2) |  | rapidly degraded into nontoxic metabolites

Reference: PMC10487304, “Shaping the “hot” immunogenic tumor microenvironment by nanoparticles co‐delivering oncolytic peptide and TGF‐β1 siRNA for boosting checkpoint blockade therapy” (Bioengineering & Translational Medicine, 2022)
